# Reference: patent US6362208B1, “Anilide compounds and drugs containing the same” (Kowa Company, Ltd., priority 1997, dated 2002)
# Experiments:
# [1] = target: T1, ACAT in J774 cells (Mus musculus, UniProt Q61263); experiment: ACAT inhibitory action (anti-foaming action) in J774 cells, cholesterol ester formation; format: cell-based; conditions: for IC50: J774 cells, 10 μg/ml 25-OH cholesterol, 18-hr culturing, cholesterol ester per protein, read-out: IC50 (μM) of J774-derived enzyme; for IC50 (HepG2)/IC50 (J774): ratio HepG2 / J774
# T1 construct: J774 cells or HepG2 cells were inoculated on a 24-well plate; endogenous in cells; host or cells: J774 cells
# T1 sequence (Q61263 1-540): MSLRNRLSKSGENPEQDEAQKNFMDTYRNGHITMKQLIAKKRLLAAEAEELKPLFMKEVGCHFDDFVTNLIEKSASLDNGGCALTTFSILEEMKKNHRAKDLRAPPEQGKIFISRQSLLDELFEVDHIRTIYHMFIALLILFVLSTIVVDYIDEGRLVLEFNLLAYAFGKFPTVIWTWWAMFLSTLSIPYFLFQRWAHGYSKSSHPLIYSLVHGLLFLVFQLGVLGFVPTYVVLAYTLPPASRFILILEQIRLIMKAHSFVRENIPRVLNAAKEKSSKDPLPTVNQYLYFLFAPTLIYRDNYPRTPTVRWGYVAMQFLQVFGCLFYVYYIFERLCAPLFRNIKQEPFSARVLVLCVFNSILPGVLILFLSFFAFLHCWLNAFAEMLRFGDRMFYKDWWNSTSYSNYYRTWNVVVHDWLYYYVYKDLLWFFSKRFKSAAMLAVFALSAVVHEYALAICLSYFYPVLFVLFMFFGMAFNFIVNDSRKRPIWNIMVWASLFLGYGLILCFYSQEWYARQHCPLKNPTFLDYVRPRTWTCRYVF
# Description: (§1) J774 cells or HepG2 cells were inoculated on a 24-well plate; J774 cells and HepG2 cells were cultured in DMEM and MEM culture broths (each of the broths containing 10% calf fetus serum), respectively, in a 5% CO2 incubator at 37° C. for 24 hours. […] After discarding the culture media, the resulting cultures were rinsed twice with PBS and extracted with 1.5 ml of hexane:isopropanol (3:2), for concentration and drying. The extracts were dissolved in isopropanol containing 0.2 ml of 10% Triton X-100, to assay total cholesterol (TC) and free cholesterol (FC) by using Cholesterol E Test WAKO (manufactured by Wako Pure Chemicals, Co.) and Free Cholesterol E Test Wako (manufactured by Wako Pure Chemicals, Co.). […] Based on the difference between TC and FC, cholesterol ester was calculated per protein, to determine IC50, compared with the calculated control IC50 value.
# [2] = system: ACAT in HepG2 cells; experiment: ACAT inhibitory action in HepG2 cells, cholesterol ester formation; format: cell-based; conditions: 10 μg/ml 25-OH cholesterol, 18-hr culturing, cholesterol ester per protein, read-out: IC50 (μM) of HepG2-derived enzyme
# Description: as §1
IC50 [1] [µM],IC50 (HepG2)/IC50 (J774) [1],IC50 [2] [µM],melting point [°C],SMILES
0.56,9.5,,,"CC(C)c1cccc(C(C)C)c1NC(=O)C(C)(C)CCCOc1ccc2c(c1)C=C(c1nccn1C)C(CCc1ccc(F)cc1)O2 (centres unmarked) [Control 1, 5-[2-(2-(4-fluorophenyl)ethyl)-3-(1-methyl-1H-imidazol-2-yl)-2H-1-benzopyran-6-yl]oxy-2,2-dimethyl-N-(2,6-diisopropylphenyl)pentanamide, reference compound]"
,,,177 to 178,"CC(C)c1cccc(C(C)C)c1NC(=O)CCCCCNc1nc2cccnc2o1 [Example 20, 6-(oxazolo[5,4-b]pyridin-2-ylamino)-N-(2,6-diisopropylphenyl)hexanamide]"
,,,137 to 138,"CC(C)c1cccc(C(C)C)c1NC(=O)CCCCCSc1nc2cccnc2s1 [Example 21, 6-(thiazolo[5,4-b]pyridin-2-ylthio)-N-(2,6-diisopropylphenyl)hexanamide]"
1.31,,,113 to 115,"CC(C)c1cccc(C(C)C)c1NC(=O)CCCCCSc1nc2c(CN(C)C)cccc2o1 [Example 27, 6-[4-(N,N-dimethylaminomethyl)benzoxazol-2-ylthio]-N-(2,6-diisopropylphenyl)hexanamide]"
0.26,7.3,1.9,102 to 104,"CC(C)c1cccc(C(C)C)c1NC(=O)CCCCCSc1nc2cc(OCc3ccccc3)ccc2o1 [Example 29, 6-(5-benzyloxybenzoxazol-2-ylthio)-N-(2,6-diisopropylphenyl)hexanamide]"
,,,157 to 158,"COC(=O)c1ccc2nc(SCCCCCC(=O)Nc3c(C(C)C)cccc3C(C)C)oc2c1 [Example 40, 6-(6-methoxycarbonylbenzoxazol-2-ylthio)-N-(2,6-diisopropylphenyl)hexanamide]"
,,,93 to 95,"CC(C)c1cccc(C(C)C)c1NC(=O)CCCCCSc1nc2ccc(CO)cc2o1 [Example 42, 6-(6-hydroxymethylbenzoxazol-2-ylthio)-N-(2,6-diisopropylphenyl)hexanamide]"
,,,82 to 84,"CC(C)c1cccc(C(C)C)c1NC(=O)CCCCCSc1nc2ccc(CN(C)C)cc2o1 [Example 43, 6-[6-(N,N-dimethylaminomethyl)benzoxazol-2-ylthio]-N-(2,6-diisopropylphenyl)hexanamide]"
,,,122 to 124,"COC(=O)c1ccc2nc(SCCCCCCCCC(=O)Nc3c(C(C)C)cccc3C(C)C)oc2c1 [Example 54, 9-(6-methoxycarbonylbenzoxazol-2-ylthio)-N-(2,6-diisopropylphenyl)nonanamide]"
,,,179 to 181,"COC(=O)c1cccc2nc(SCCCCCCCNC(=O)Nc3c(C(C)C)cccc3C(C)C)oc12 [Example 55, N-(2,6-diisopropylphenyl)-N′-[7-(7-methoxycarbonylbenzoxazol-2-ylthio)heptyl]urea]"
,,,190 to 191,"CC(C)c1cccc(C(C)C)c1NC(=O)CCCCCSc1ncc[nH]1 [Example 68, 6-(imidazol-2-ylthio)-N-(2,6-diisopropylphenyl)hexanamide]"
,,,130,"CC(C)c1cccc(C(C)C)c1NC(=O)CCCCCSc1nc2cccc(C(F)(F)F)c2o1 [Example 74, 6-(7-trifluoromethylbenzoxazol-2-ylthio)-N-(2,6-diisopropylphenyl)hexanamide]"

# More lines, now with the values behind:
SMILES,IC50 [1] [µM],IC50 (HepG2)/IC50 (J774) [1],IC50 [2] [µM],melting point [°C]
"CC(C)c1cccc(C(C)C)c1NC(=O)CCCCCSc1nc2ncccc2o1 [Example 1, 6-(oxazolo[4,5-b]pyridin-2-ylthio)-N-(2,6-diisopropylphenyl)hexanamide]",1.3,3.2,4.1,94 to 95
"CC(C)c1cccc(C(C)C)c1NC(=O)CCCCCSc1nc2cnccc2[nH]1 [Example 6, 6-(imidazolo[4,5-c]pyridin-2-ylthio)-N-(2,6-diisopropylphenyl)hexanamide]",10,1.0,10,96 to 98
"CC(C)c1cccc(C(C)C)c1NC(=O)CCCCCSc1nc2c(N(C)C)cccc2o1 [Example 28, 6-(4-N,N-dimethylaminobenzoxazol-2-ylthio)-N-(2,6-diisopropylphenyl)hexanamide]",0.47,0.9,0.42,129 to 130
"COC(=O)c1ccc2oc(SCCCCCC(=O)Nc3c(C(C)C)cccc3C(C)C)nc2c1 [Example 34, 6-(5-methoxycarbonylbenzoxazol-2-ylthio)-N-(2,6-diisopropylphenyl)hexanamide]",0.6,13.5,8.15,104 to 106
"CC(C)c1cccc(C(C)C)c1NC(=O)CCCCCSc1nc2cc(N(C)C)ccc2o1 [Example 38, 6-(5-N,N-dimethylaminobenzoxazol-2-ylthio)-N-(2,6-diisopropylphenyl)hexanamide]",1.83,,,130 to 132
"COC(=O)c1cccc2nc(SCCCCCC(=O)Nc3c(C(C)C)cccc3C(C)C)oc12 [Example 46, 6-(7-methoxycarbonylbenzoxazol-2-ylthio)-N-(2,6-diisopropylphenyl)hexanamide]",0.098,303.4,29.8,118 to 119
"CC(C)c1cccc(C(C)C)c1NC(=O)CCCCCSc1nc2cccc(C(=O)O)c2o1 [Example 47, 6-(7-carboxybenzoxazol-2-ylthio)-N-(2,6-diisopropylphenyl)hexanamide]",,,,175 to 177
"CC(C)c1cccc(C(C)C)c1NC(=O)CCCCCSc1nc2cccc(CO)c2o1 [Example 48, 6-[7-hydroxymethylbenzoxazol-2-ylthio]-N-(2,6-diisopropylphenyl)hexanamide]",,,,91 to 92
"CC(C)c1cccc(C(C)C)c1NC(=O)CCCCCSc1nc2cccc(CN(C)C)c2o1 [Example 49, 6-[7-(N,N-dimethylaminomethyl)benzoxazol-2-ylthio]-N-(2,6-diisopropylphenyl)hexanamide]",,,,102 to 104
"CC(C)c1cccc(C(C)C)c1NC(=O)CCCCCSc1nc2cccc(N(C)C)c2o1 [Example 50, 6-(7-N,N-dimethylaminobenzoxazol-2-ylthio)-N-(2,6-diisopropylphenyl)hexanamide]",,,,129 to 130
"CC(C)c1cccc(C(C)C)c1NC(=O)CCCCCSc1nc2cccc(CN3CCOCC3)c2o1 [Example 51, 6-[7-(1-morpholino)methylbenzoxazol-2-ylthio]-N-(2,6-diisopropylphenyl)hexanamide]",,,,117 to 118
"CC(C)c1cccc(C(C)C)c1NC(=O)CCCCCSc1nc2cccc(-c3nnn[nH]3)c2o1 [Example 52, 6-[7-(tetrazol-5-yl)benzoxazol-2-ylthio)-N-(2,6-diisopropylphenyl)hexanamide]",,,,218 to 220
"COC(=O)c1cccc2nc([S+]([O-])CCCCCCCNC(=O)Nc3c(C(C)C)cccc3C(C)C)oc12 (centres unmarked) [Example 56, N-(2,6-diisopropylphenyl)-N′-[7-(7-methoxycarbonylbenzoxazol-2-ylsulfinyl)heptyl]urea]",,,,145 to 147
"COC(=O)c1cccc2nc(SCCCCCC(=O)Nc3c(OC)cc(OC)cc3OC)oc12 [Example 62, 6-(7-methoxycarbonylbenzoxazol-2-ylthio)-N-(2,4,6-trimethoxyphenyl)hexanamide]",,,,136 to 138
"COC(=O)c1ccc2nc(SCCCCCC(=O)Nc3c(C(C)C)cccc3C(C)C)[nH]c2c1 [Example 63, 6-(5-methoxycarbonylbenzimidazol-2-ylthio)-N-(2,6-diisopropylphenyl)hexanamide]",,,,190 to 192
"CCOC(=O)c1cccc2nc(SCCCCCC(=O)Nc3c(C(C)C)cccc3C(C)C)oc12 [Example 79, 6-(7-ethoxycarbonylbenzoxazol-2-ylthio)-N-(2,6-diisopropylphenyl)hexanamide]",,,,114 to 116
"COC(=O)c1c(O)ccc2nc(SCCCCCC(=O)Nc3c(C(C)C)cccc3C(C)C)oc12 [Example 91, 6-[6-hydroxy-7-methoxycarbonylbenzoxazol-2-ylthio)-N-(2,6-diisopropylphenyl)hexanamide]",,,,155 to 156
